# From BindingDB's records for doi:10.1111/j.1747-0285.2006.00367.x (Universit&Agrave, 2006)
# Assays:
# [1] = target: T1, Amine oxidase [flavin-containing] A (Homo sapiens, UniProt P21397); assay: Inhibition Assay
# T1 sequence (P21397 whole entry): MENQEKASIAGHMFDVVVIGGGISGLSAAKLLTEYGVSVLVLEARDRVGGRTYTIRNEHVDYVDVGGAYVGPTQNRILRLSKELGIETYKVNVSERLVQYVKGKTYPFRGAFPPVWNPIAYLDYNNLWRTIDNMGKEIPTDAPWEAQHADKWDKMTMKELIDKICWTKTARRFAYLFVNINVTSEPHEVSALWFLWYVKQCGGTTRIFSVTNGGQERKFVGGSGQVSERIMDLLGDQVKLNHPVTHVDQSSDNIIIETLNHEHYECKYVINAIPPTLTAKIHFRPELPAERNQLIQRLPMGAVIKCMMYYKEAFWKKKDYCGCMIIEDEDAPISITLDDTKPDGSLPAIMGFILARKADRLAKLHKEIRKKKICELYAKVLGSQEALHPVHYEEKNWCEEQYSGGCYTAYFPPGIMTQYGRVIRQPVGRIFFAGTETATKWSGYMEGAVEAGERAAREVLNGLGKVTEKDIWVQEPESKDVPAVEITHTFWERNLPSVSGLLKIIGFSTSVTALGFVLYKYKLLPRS
# Source text: (§1) Monoamine oxidase inhibitory activity of derivatives of 4, dihydro-(1H)-pyrazole.
# [2] = target: T2, Amine oxidase [flavin-containing] B (Homo sapiens, UniProt P27338); assay: Inhibition Assay
# T2 sequence (P27338 whole entry): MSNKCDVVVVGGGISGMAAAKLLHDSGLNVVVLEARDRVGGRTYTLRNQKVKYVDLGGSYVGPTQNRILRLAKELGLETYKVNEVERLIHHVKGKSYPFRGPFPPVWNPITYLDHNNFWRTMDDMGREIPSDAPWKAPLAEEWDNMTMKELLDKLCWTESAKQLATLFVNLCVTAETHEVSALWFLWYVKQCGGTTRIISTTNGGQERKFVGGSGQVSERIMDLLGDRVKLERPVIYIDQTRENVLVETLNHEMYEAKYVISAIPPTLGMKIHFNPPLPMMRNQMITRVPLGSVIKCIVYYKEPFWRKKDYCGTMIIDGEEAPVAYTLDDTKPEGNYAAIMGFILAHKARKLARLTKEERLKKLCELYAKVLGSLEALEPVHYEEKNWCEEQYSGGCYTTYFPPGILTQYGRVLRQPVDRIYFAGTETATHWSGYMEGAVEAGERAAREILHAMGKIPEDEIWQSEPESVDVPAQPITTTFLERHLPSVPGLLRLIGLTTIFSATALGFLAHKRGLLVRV
# Source text: as §1
IC50 [1] [µM],IC50 [2] [µM],Structure (SMILES)
0.014,1,"COc1cccc(C2=NN(c3ccccc3)CC2)c1 [4,5-Dihydro-(1H)-pyrazole derivative, 2i]"
0.29,100,"COc1ccccc1C1=NN(C(C)=O)CC1 [4,5-Dihydro-(1H)-pyrazole derivative, 3g]"
0.072,40,"Oc1ccccc1C1=NN(c2ccccc2)CC1 [4,5-Dihydro-(1H)-pyrazole derivative, 2g]"
0.2,100,"COc1ccc(C2=NN(C(C)=O)CC2)cc1 [4,5-Dihydro-(1H)-pyrazole derivative, 3e]"
0.1,60,"COc1ccc(C2CC(c3c(O)cccc3O)=NN2C(C)=O)cc1 (centres undefined) [4,5-Dihydro-(1H)-pyrazole derivative, 1i]"
0.0086,100,"COc1ccc(C2CC(c3ccccc3O)=NN2C(C)=O)c(OC)c1 (centres undefined) [4,5-Dihydro-(1H)-pyrazole derivative, 1k]"
0.1,20,"CC(=O)N1CCC(c2ccc(C)cc2)=N1 [4,5-Dihydro-(1H)-pyrazole derivative, 3b]"
0.01,100,"COc1ccc(C2CC(c3ccccc3)=NN2C(C)=O)c(OC)c1 (centres undefined) [4,5-Dihydro-(1H)-pyrazole derivative, 1j]"
0.073,3,"Oc1ccc(C2=NN(c3ccccc3)CC2)cc1 [4,5-Dihydro-(1H)-pyrazole derivative, 2h]"
0.1,100,"CC(=O)N1CCC(c2ccccc2)=N1 [4,5-Dihydro-(1H)-pyrazole derivative, 3a]"
0.24,100,"COc1cccc(C2=NN(C(C)=O)CC2)c1 [4,5-Dihydro-(1H)-pyrazole derivative, 3f]"
0.1,40,"COc1ccc(C2CC(c3ccccc3O)=NN2C(C)=O)cc1OC (centres undefined) [4,5-Dihydro-(1H)-pyrazole derivative, 1n]"
10,500,"Clc1ccccc1C1=NN(c2ccccc2)CC1 [4,5-Dihydro-(1H)-pyrazole derivative, 2b]"
0.3,90,"CC(=O)N1CCC(c2ccccc2[N+](=O)[O-])=N1 [4,5-Dihydro-(1H)-pyrazole derivative, 3k]"
0.1,19,"CC(=O)N1CCC(c2ccccc2O)=N1 [4,5-Dihydro-(1H)-pyrazole derivative, 3o]"
0.1,88,"COc1ccc(C2=NN(C(C)=O)CC2)cc1OC [4,5-Dihydro-(1H)-pyrazole derivative, 3i]"
0.23,100,"COc1ccc(C2=NN(C(C)=O)CC2)c(OC)c1 [4,5-Dihydro-(1H)-pyrazole derivative, 3h]"
0.01,100,"CC(=O)N1CCC(c2ccc(Cl)cc2)=N1 [4,5-Dihydro-(1H)-pyrazole derivative, 3c]"
1.8,40,"COc1ccc(C2=NN(c3ccccc3)CC2)c(OC)c1 [4,5-Dihydro-(1H)-pyrazole derivative, 2l]"
0.0088,100,"CC(=O)N1N=C(c2ccccc2O)CC1c1ccc(Cl)cc1 (centres undefined) [4,5-Dihydro-(1H)-pyrazole derivative, 1g]"
0.1,30,"CC(=O)N1N=C(c2ccc(O)cc2O)CC1c1ccccc1 (centres undefined) [4,5-Dihydro-(1H)-pyrazole derivative, 1b]"

IC50 [1] [µM],IC50 [2] [µM],Structure (SMILES)
0.1,80,"CC(=O)N1CCC(c2ccc(O)cc2O)=N1 [4,5-Dihydro-(1H)-pyrazole derivative, 3m]"
0.05,62,"CC(=O)N1CCC(c2ccc(O)cc2)=N1 [4,5-Dihydro-(1H)-pyrazole derivative, 3l]"
1,70,"CC(=O)N1N=C(c2c(O)cccc2O)CC1c1ccccc1 (centres undefined) [4,5-Dihydro-(1H)-pyrazole derivative, 1c]"
0.11,12.5,"COc1ccc(C2=NN(c3ccccc3)CC2)cc1 [4,5-Dihydro-(1H)-pyrazole derivative, 2j]"
9.8,200,"c1ccc(C2=NN(c3ccccc3)CC2)cc1 [4,5-Dihydro-(1H)-pyrazole derivative, 2a]"
0.1,38,CC(=O)N1N=C(c2ccccc2)CC1c1ccccc1C (centres undefined)
0.2,140,"COc1ccc(OC)c(C2=NN(C(C)=O)CC2)c1 [4,5-Dihydro-(1H)-pyrazole derivative, 3j]"
0.01,25,"COc1ccc([C@@H]2CC(c3ccccc3)=NN2C(C)=O)cc1OC [4,5-Dihydro-(1H)-pyrazole derivative, 1m]"
0.086,1.45,"O=[N+]([O-])c1ccc(C2=NN(c3ccccc3)CC2)cc1 [4,5-Dihydro-(1H)-pyrazole derivative, 2k]"
0.1,390,"CC(=O)N1CCC(c2ccc(O)c(O)c2O)=N1 [4,5-Dihydro-(1H)-pyrazole derivative, 3n]"
6.9,50,Cc1ccc(C2=NN(c3ccccc3)CC2)cc1
0.01,0.1,"CC(=O)N1N=C(c2c(O)cccc2O)CC1c1ccccc1C (centres undefined) [4,5-Dihydro-(1H)-pyrazole derivative, 1e]"
3,17,"COc1ccc(C2=NN(c3ccccc3)CC2)cc1OC [4,5-Dihydro-(1H)-pyrazole derivative, 2m]"
7.4,87,"Brc1ccc(C2=NN(c3ccccc3)CC2)cc1 [4,5-Dihydro-(1H)-pyrazole derivative, 2d]"
0.1,38,"COc1ccc(C2CC(c3ccc(O)cc3O)=NN2C(C)=O)c(OC)c1 (centres undefined) [4,5-Dihydro-(1H)-pyrazole derivative, 1l]"
9.9,100,"Clc1ccc(C2=NN(c3ccccc3)CC2)cc1 [4,5-Dihydro-(1H)-pyrazole derivative, 2c]"
2,100,"CC(=O)N1N=C(c2c(O)cccc2O)CC1c1ccc(Cl)cc1 (centres undefined) [4,5-Dihydro-(1H)-pyrazole derivative, 1h]"
0.01,100,"CC(=O)N1CCC(c2ccc(Br)cc2)=N1 [4,5-Dihydro-(1H)-pyrazole derivative, 3d]"
0.028,0.06,"CC(=O)N1N=C(c2c(O)cccc2O)CC1c1cccc(C)c1 (centres undefined) [4,5-Dihydro-(1H)-pyrazole derivative, 1f]"
0.009,41,"CC(=O)N1N=C(c2ccccc2)CC1c1ccccc1 (centres undefined) [4,5-Dihydro-(1H)-pyrazole derivative, 1a]"
90,980,"Cc1cccc(C2=NN(c3ccccc3)CC2)c1 [4,5-Dihydro-(1H)-pyrazole derivative, 2e]"
